# Assays:
# Format in all cases: in vivo, mouse
# [1] = tested on: OCI-Ly10 human DLBCL xenografts; test: Antitumor activity in SCID mice bearing OCI-Ly10 human DLBCL xenografts, ibrutinib or bendamustine combination (Example 5); details: Day 21, Compound A 60 mg/kg PO QD, ibrutinib 6 mg/kg PO QD, bendamustine 1 mg/kg IV BIW (6 doses), alone or combined with Compound A
# [2] = tested on: WSU-Luc human lymphoma xenografts; test: Antitumor activity in SCID mice bearing WSU-Luc human lymphoma xenografts, ibrutinib combination (Example 12); details: Day 20, alone or combined
# Procedure: The study ended on Day 20 of dosing.
# (§1) Tumor growth was monitored with vernier calipers. Tumor volume was calculated using the formula V=W^2×L/2, where V=volume, W=width and L=length of the tumor. When the mean tumor volume reached approximately 190 mm^3, the animals were randomized into treatment groups (n=8/group). […] Tumor growth and body weight were measured twice per week. Tumor growth inhibition and body weight change were calculated on Day 20 of treatment.
# (§2) Statistical analysis: The differences in the tumor growth trends over time between pairs of treatment groups were assessed using linear mixed effects regression models. These models account for the fact that each animal was measured at multiple time points. A separate model was fit for each comparison, and the areas under the curve (AUC) for each treatment group were calculated using the predicted values from the model. The percent decrease in AUC (dAUC) relative to the reference group was then calculated.
# The change in AUC relative to the control was calculated for both single agent treatment groups as well as the combination group. […] The results can be divided into four categories: synergistic, additive, sub-additive, and antagonistic.
# (§3) For this analysis, a T/C ratio was calculated for each animal by dividing the tumor measurement for the given animal by the mean tumor measurement across all control animals. The T/C ratios across a treatment group were compared to the T/C ratios of the control group using a two-tailed Welch's t-test.
# [3] = Body weight and tolerability, WSU-Luc ibrutinib study (Example 12); details: Compound A 60 mg/kg; ibrutinib 20 mg/kg; alone or combined
# Procedure: as §1
# TMD8 DLBCL xenografts [4] = test: Antitumor activity in CB17 SCID mice bearing TMD8 DLBCL xenografts, gemcitabine combination (Example 8); details: Day 14, alone or combined
# Procedure: Tumor growth inhibition was calculated on Day 14 of the study. The last measurement was taken on Day 40 of the study.
# (§4) Experimental design: Female CB17 SCID mice (Taconic Biosciences; weight at treatment start was 19 g) were inoculated subcutaneously in the flank (cell suspension) with 5.0×10^6 TMD8 cells. Tumor growth was monitored with vernier calipers. Tumor volume was calculated using the formula V=W^2×L/2, where V=volume, W=width and L=length of the tumor. When the mean tumor volume reached approximately 215 mm^3, the animals were randomized into treatment groups (n=8/group). […] Tumor growth and body weight were measured twice per week. Tumor growth inhibition and body weight change were calculated on Day 14 of treatment.
# as §2, with “calculated. […] Further details regarding pairwise comparisons are provided in the Example 2.” for “calculated.”
# (§5) Drug combinations were assessed for synergy using observed AUC values. The change in AUC relative to the control was calculated for both single agent treatment groups as well as the combination group. The interaction between the two compounds was then assessed by comparing the change in AUC observed in the combination group to the sum of the changes observed in both single agents. The results can be divided into four categories: synergistic, additive, sub-additive, and antagonistic. Further details regarding combination analysis are provided in the Example 2.
# as §3, with “Once a final analysis was selected, the tumor measurements observed on a date pre-specified by the researcher (typically the last day of treatment) were analyzed to assess tumor growth inhibition. For” for “For”
# OCI-LY10 xenografts = test: Antitumor activity in CB17 SCID mice bearing OCI-LY10 xenografts, gemcitabine combination (Example 7); details: Day 21
# Procedure: Tumor growth inhibition was calculated on Day 21 of the study. The last measurement was taken on Day 42 of the study.
# as §4, with “20” for “19”, “4.0×10^6 OCI-Ly10” for “5.0×10^6 TMD8”, “cells.” for “cells. Tumor growth was monitored with vernier calipers.”, “199” for “215”, “into 6” for “into”, “21” for “14”
# as §2, with “calculated. […] Further details regarding pairwise comparisons are provided in the Example 2.” for “calculated.”
# as §5, with “analyses” for “analysis”
# as §3, with “Once a final analysis was selected, the tumor measurements observed on a date pre-specified by the researcher (typically the last day of treatment) were analyzed to assess tumor growth inhibition. For” for “For”
# [5] = Body weight and tolerability, TMD8 gemcitabine study (Example 8); details: alone or combined
# Procedure: as §4
# [6] = Body weight and tolerability, TMD8 ABT-199/gemcitabine study (Example 9); details: alone or combined with Compound A; for % BW Change (Day Maximum): Compound A 60 mg/kg PO QD 14 d, ABT-199 25 mg/kg PO QD 14 d, gemcitabine 5 mg/kg IP Q3D x4; for Number of animals removed: Compound A 60 mg/kg, ABT-199 25 mg/kg, gemcitabine 5 mg/kg
# Procedure: as §4, with “start was about 19 g)” for “start was 19 g)”, “reached approximately 245 mm^3, the” for “reached approximately 215 mm^3, the”, “randomized into 6 treatment groups” for “randomized into treatment groups”
# [7] = Body weight and tolerability, OCI-LY10 gemcitabine study (Example 7)
# Procedure: as §4, with “20” for “19”, “4.0×10^6 OCI-Ly10” for “5.0×10^6 TMD8”, “cells.” for “cells. Tumor growth was monitored with vernier calipers.”, “199” for “215”, “into 6” for “into”, “21” for “14”
# TMD8 DLBCL xenografts [8] = test: Antitumor activity in CB17 SCID mice bearing TMD8 DLBCL xenografts, ABT-199 or gemcitabine combination (Example 9); details: Day 14, alone or combined with Compound A; for TGI (%): Compound A 60 mg/kg PO QD, ABT-199 25 mg/kg PO QD, gemcitabine 5 mg/kg IP Q3D x4; for Mean Tumor Volume (mm^3) ± SEM / T/C: Compound A 60 mg/kg, ABT-199 25 mg/kg, gemcitabine 5 mg/kg
# Procedure: Tumor growth inhibition was calculated on Day 14 of the study. The last measurement was taken on Day 29 of the study.
# as §4, with “start was about 19 g)” for “start was 19 g)”, “reached approximately 245 mm^3, the” for “reached approximately 215 mm^3, the”, “randomized into 6 treatment groups” for “randomized into treatment groups”
# as §2, with “calculated. […] Further details regarding pairwise comparisons are provided in the Example 2.” for “calculated.”
# as §5, with “analyses” for “analysis”
# as §3, with “Once a final analysis was selected, the tumor measurements observed on a date pre-specified by the researcher (typically the last day of treatment) were analyzed to assess tumor growth inhibition. For” for “For”
# OCI-LY 10 xenografts = test: Antitumor activity in CB17 SCID mice bearing OCI-LY10 xenografts, ABT-199 combination (Example 11); details: Day 21
# Procedure: Tumor growth inhibition was calculated on Day 21 of the study. The last measurement was taken on Day 46 of the study.
# as §4, with “(Charles River Laboratories, about 21 g” for “(Taconic Biosciences; weight”, “start)” for “start was 19 g)”, “4.0×10^6 OCI-Ly10” for “5.0×10^6 TMD8”, “175” for “215”, “(n=5/group).” for “(n=8/group).”, “21” for “14”
# as §2, with “calculated. […] Further details regarding pairwise comparisons are provided in the Example 2.” for “calculated.”
# as §5, with “analyses” for “analysis”
# as §3, with “Once a final analysis was selected, the tumor measurements observed on a date pre-specified by the researcher (typically the last day of treatment) were analyzed to assess tumor growth inhibition. For” for “For”
# [9] = Body weight and tolerability, OCI-LY10 ABT-199 study (Example 11)
# Procedure: as §4, with “(Charles River Laboratories, about 21 g” for “(Taconic Biosciences; weight”, “start)” for “start was 19 g)”, “4.0×10^6 OCI-Ly10” for “5.0×10^6 TMD8”, “175” for “215”, “(n=5/group).” for “(n=8/group).”, “21” for “14”
# [10] = tested on: OCI-Ly10 human lymphoma xenografts; test: Antitumor activity in SCID mice bearing OCI-Ly10 human lymphoma xenografts, bendamustine and rituximab (Example 6); details: Day 21; Compound A 30 mg/kg PO QD x21; bendamustine 1 mg/kg IV BIW; rituximab 1 mg/kg IV QW x3; alone or combined
# [11] = tested on: Ly10 human lymphoma xenografts; test: Antitumor activity in SCID mice bearing Ly10 xenografts, rituximab combination (Example 13); details: alone or combined
# [12] = tested on: Ly19 human lymphoma xenografts; test: Antitumor activity in SCID mice bearing Ly19 xenografts, rituximab combination (Example 14); details: alone or combined
# [13] = Compound A 60 mg/kg, ibrutinib 20 mg/kg
# [14] = Compound A 60 mg/kg PO QD, gemcitabine 5 mg/kg IP Q3D x4
# [15] = Compound A 60 mg/kg, gemcitabine 5 mg/kg
# [16] = Compound A 60 mg/kg PO QD, gemcitabine 2.5 mg/kg IP Q3D, alone or combined
# [17] = Compound A 60 mg/kg, gemcitabine 2.5 mg/kg, alone or combined
# [18] = gemcitabine 5 mg/kg IP Q3D, alone or with Compound A 60 mg/kg PO QD
# [19] = gemcitabine 5 mg/kg, alone or with Compound A 60 mg/kg
# [20] = ABT-199 25 mg/kg, alone or with Compound A 60 mg/kg
# [21] = Compound A 60 mg/kg, ABT-199 12.5 mg/kg, alone or combined
# [22] = Day 21, Compound A 60 mg/kg PO QD x21, rituximab 1 mg/kg IV QW x3
# [23] = Day 14, Compound A 60 mg/kg PO QD x14, rituximab 10 mg/kg IV QW x2
compound,measurement,setting,value
C=CC(=O)N1CCC[C@@H](n2nc(-c3ccc(Oc4ccccc4)cc3)c3c(N)ncnc32)C1 [ibrutinib],TGI,[1],18%
same,TGI,[1]; listed as Ibrutinib,18.0%
same,TGI (%),"[2]; Compound A 60 mg/kg PO QD, ibrutinib 20 mg/kg PO QD",0.5%
same,Mean Tumor Volume (mm^3) ± SEM,[2]; [13],"1,085.2 ± 109.9 mm^3"
same,T/C,[2]; [13],1.00
same,Number of animals removed,[3],0
Nc1ccn([C@@H]2O[C@H](CO)[C@@H](O)C2(F)F)c(=O)n1 [gemcitabine],Mean Tumor Volume (mm^3) ± SEM,TMD8 DLBCL xenografts [4]; [14],294.7 ± 36.5 mm^3
same,TGI (%),TMD8 DLBCL xenografts [4]; [14],67.1%
same,T/C,TMD8 DLBCL xenografts [4]; [15],0.33
same,Mean Tumor Volume (mm^3) ± SEM,OCI-LY10 xenografts; [16],561.7 ± 52.5 mm^3
same,TGI (%),OCI-LY10 xenografts; [16],52.6%
same,T/C,OCI-LY10 xenografts; [17],0.47
same,Mean Tumor Volume (mm^3) ± SEM,OCI-LY10 xenografts; [18],331.3 ± 57.6 mm^3
same,TGI (%),OCI-LY10 xenografts; [18],72.1%
same,T/C,OCI-LY10 xenografts; [19],0.28
same,% BW Change (Day Maximum),"[5]; Compound A 60 mg/kg PO QD 14 d, gemcitabine 5 mg/kg IP Q3D x4",−0.1 (4) %
same,Number of animals removed,[5]; [15],0
same,% BW Change (Day Maximum),[6],−0.2 (11) %
same,Number of animals removed,[6],0
same,% BW Change (Day Maximum),"[7]; Compound A 60 mg/kg PO QD 21 d, gemcitabine 2.5 mg/kg IP Q3D (4 doses), alone or combined",7.5 (21) %
same,Number of animals removed,[7]; [17],0
same,% BW Change (Day Maximum),"[7]; gemcitabine 5 mg/kg IP Q3D (4 doses), alone or with Compound A 60 mg/kg PO QD",−1.4 (3) %
same,Number of animals removed,[7]; [19],0
same,TGI (%),TMD8 DLBCL xenografts [8],70.3%
same,Mean Tumor Volume (mm^3) ± SEM,TMD8 DLBCL xenografts [8],440.2 ± 70.9 mm^3
same,T/C,TMD8 DLBCL xenografts [8],0.30
"CC1(C)CCC(CN2CCN(c3ccc(C(=O)NS(=O)(=O)c4ccc(NCC5CCOCC5)c([N+](=O)[O-])c4)c(Oc4cnc5[nH]ccc5c4)c3)CC2)=C(c2ccc(Cl)cc2)C1 [ABT-199, venetoclax]",TGI (%),"OCI-LY 10 xenografts; ABT-199 25 mg/kg PO QD, alone or with Compound A 60 mg/kg PO QD",9.2%
same,Mean Tumor Volume (mm^3) ± SEM,OCI-LY 10 xenografts; [20],950.3 ± 182.1 mm^3
same,T/C,OCI-LY 10 xenografts; [20],0.91
same,TGI (%),"OCI-LY 10 xenografts; Compound A 60 mg/kg PO QD, ABT-199 12.5 mg/kg PO QD, alone or combined",−0.4%
same,Mean Tumor Volume (mm^3) ± SEM,OCI-LY 10 xenografts; [21],"1,050.6 ± 221.4 mm^3"
same,T/C,OCI-LY 10 xenografts; [21],1.00
same,% BW Change (Day Maximum),[6],−0.4 (11) %
same,Number of animals removed,[6],0
same,% BW Change (Day Maximum),"[9]; ABT-199 25 mg/kg PO QD 21 d, alone or with Compound A 60 mg/kg PO QD",−1.5 (14) %
same,Number of animals removed,[9]; [20],1
same,% BW Change (Day Maximum),"[9]; Compound A 60 mg/kg PO QD 21 d, ABT-199 12.5 mg/kg PO QD 21 d, alone or combined",4.6 (21) %
same,Number of animals removed,[9]; [21],0
same,TGI (%),TMD8 DLBCL xenografts [8],29.1%
same,Mean Tumor Volume (mm^3) ± SEM,TMD8 DLBCL xenografts [8],"1,048.9 ± 136.1 mm^3"
same,T/C,TMD8 DLBCL xenografts [8],0.71
rituximab,TGI,[10],33.4%
same,Mean Tumor Volume (mm^3) ± SEM at Day 21,[11]; [22],301.8 ± 30.8 mm^3
same,TGI (%),[11]; [22],66.7%
same,dAUC,"[11]; vs vehicle, Compound A 60 mg/kg, rituximab 1 mg/kg",77.6
same,Mean Tumor Volume (mm^3) ± SEM at Day 14,[12]; [23],516.8 ± 113.3 mm^3
same,TGI (%),[12]; [23],79.5%
same,dAUC,"[12]; vs vehicle, Compound A 60 mg/kg, rituximab 10 mg/kg",61.8
